Reference: ChEMBL document CHEMBL1201862, “PubChem BioAssay data set” (2004)
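Each compound was tested at five concentrations against cells in 96-well plates for 48 hours. Here, GI50 denotes the concentration required for 50% inhibition of growth.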 Active and inactive are the calls of the source. Cut-off read from the data, not from the text of the source: active = GI50 up to about 1.1 µM and inactive = higher.

Key:
Assay in all cases: NCI tumour cell line growth inhibition, 48 h
T47D = test system: T47D
OVCAR-5 = test system: OVCAR-5
HOP-62 = test system: HOP-62
NCI/ADR-RES = test system: NCI/ADR-RES
SNB-75 = test system: SNB-75
A549 = test system: A549
OVCAR-3 = test system: OVCAR-3
HCT-15 = test system: HCT-15
786-0 = test system: 786-0
MOLT-4 = test system: MOLT-4
COLO 205 = test system: COLO 205
NCI-H226 = test system: NCI-H226
OVCAR-8 = test system: OVCAR-8
SK-MEL-2 = test system: SK-MEL-2
K562 = test system: K562
HCT-116 = test system: HCT-116
SW-620 = test system: SW-620
A498 = test system: A498
SF-268 = test system: SF-268
HCC 2998 = test system: HCC 2998
OVCAR-4 = test system: OVCAR-4
NCI-H23 = test system: NCI-H23
NCI-H460 = test system: NCI-H460
RPMI-8226 = test system: RPMI-8226
DU-145 = test system: DU-145
SR = test system: SR
UO-31 = test system: UO-31
MDA-MB-435 = test system: MDA-MB-435
PC-3 = test system: PC-3
HT-29 = test system: HT-29
RXF 393 = test system: RXF 393
SK-OV-3 = test system: SK-OV-3
IGROV-1 = test system: IGROV-1
ACHN = test system: ACHN
KM12 = test system: KM12
U-251 = test system: U-251
SN12C = test system: SN12C
UACC-257 = test system: UACC-257
HL-60 = test system: HL-60
TK-10 = test system: TK-10
SF-539 = test system: SF-539
UACC-62 = test system: UACC-62
LOX IMVI = test system: LOX IMVI
NCI-H522 = test system: NCI-H522
CAKI-1 = test system: CAKI-1
SK-MEL-5 = test system: SK-MEL-5
MDA-MB-231 = test system: MDA-MB-231
SK-MEL-28 = test system: SK-MEL-28
SF-295 = test system: SF-295
EKVX = test system: EKVX
CCRF-CEM = test system: CCRF-CEM
BT-549 = test system: BT-549
M14 = test system: M14
MCF7 = test system: MCF7
SNB-19 = test system: SNB-19
Malme-3M = test system: Malme-3M
MDA-N = test system: MDA-N
HOP-92 = test system: HOP-92

Measured: GI50

CCOCCOCCOCc1nc(C#N)c(N)o1
> 100 µM: HCT-15
inactive: T47D > 100 µM | OVCAR-5 > 100 µM | HOP-62 > 100 µM | NCI/ADR-RES > 100 µM | SNB-75 > 100 µM | A549 > 100 µM | OVCAR-3 > 100 µM | 786-0 > 100 µM | MOLT-4 > 100 µM | COLO 205 > 100 µM | NCI-H226 > 100 µM | OVCAR-8 > 100 µM | SK-MEL-2 > 100 µM | K562 > 100 µM | HCT-116 > 100 µM | SW-620 > 100 µM | A498 > 100 µM | SF-268 > 100 µM | HCC 2998 > 100 µM | OVCAR-4 > 100 µM | NCI-H23 > 100 µM | NCI-H460 > 100 µM | RPMI-8226 > 100 µM | DU-145 > 100 µM | SR > 100 µM | UO-31 > 100 µM | MDA-MB-435 > 100 µM | PC-3 > 100 µM | HT-29 > 100 µM | RXF 393 > 100 µM | SK-OV-3 > 100 µM | IGROV-1 > 100 µM | ACHN > 100 µM | KM12 > 100 µM | U-251 > 100 µM | SN12C > 100 µM | UACC-257 > 100 µM | HL-60 > 100 µM | TK-10 > 100 µM | SF-539 > 100 µM | UACC-62 > 100 µM | LOX IMVI > 100 µM | NCI-H522 93.1 µM | CAKI-1 > 100 µM | SK-MEL-5 > 100 µM | MDA-MB-231 > 100 µM | SK-MEL-28 > 100 µM | SF-295 > 100 µM | EKVX > 100 µM | CCRF-CEM > 100 µM | BT-549 > 100 µM | M14 > 100 µM | MCF7 > 100 µM

Cc1nc(O)nc(N/N=C/c2c3ccccc3c(Cl)c3ccccc23)c1C(=O)Nc1ccc(Cl)cc1
> 100 µM: HCT-15
inactive: T47D > 100 µM | OVCAR-5 > 100 µM | HOP-62 34.7 µM | SNB-19 92.5 µM | SNB-75 > 100 µM | A549 63.4 µM | OVCAR-3 58.3 µM | 786-0 36 µM | MOLT-4 31.3 µM | NCI-H226 74 µM | OVCAR-8 68.9 µM | SK-MEL-2 > 100 µM | K562 68.5 µM | HCT-116 65.9 µM | SW-620 52.6 µM | A498 47.5 µM | SF-268 > 100 µM | HCC 2998 44.6 µM | OVCAR-4 45.5 µM | NCI-H23 > 100 µM | NCI-H460 45.4 µM | RPMI-8226 > 100 µM | Malme-3M > 100 µM | DU-145 > 100 µM | SR 38.5 µM | UO-31 > 100 µM | MDA-MB-435 > 100 µM | PC-3 10.8 µM | HT-29 55.7 µM | IGROV-1 71.1 µM | ACHN 33.8 µM | U-251 37.9 µM | SN12C > 100 µM | UACC-257 > 100 µM | HL-60 19 µM | TK-10 47.6 µM | MDA-N > 100 µM | UACC-62 50.5 µM | LOX IMVI 38.9 µM | NCI-H522 > 100 µM | CAKI-1 99.5 µM | SK-MEL-5 41.8 µM | MDA-MB-231 > 100 µM | SK-MEL-28 > 100 µM | CCRF-CEM 32.3 µM | BT-549 > 100 µM | M14 79.3 µM | MCF7 > 100 µM

N#CC(c1cc(Cl)ncn1)c1nc2cc(C(F)(F)F)ccc2s1 (stereo not drawn)
3.48 µM: HCT-15
inactive: T47D 4.29 µM | OVCAR-5 3.78 µM | HOP-62 13.8 µM | NCI/ADR-RES 3.08 µM | SNB-19 3.83 µM | SNB-75 5.79 µM | A549 6.01 µM | OVCAR-3 3.32 µM | 786-0 3.3 µM | MOLT-4 4.74 µM | COLO 205 3.35 µM | NCI-H226 15.1 µM | OVCAR-8 3.83 µM | K562 6.92 µM | HCT-116 2.97 µM | SW-620 5.37 µM | A498 5.85 µM | SF-268 3.66 µM | OVCAR-4 2.97 µM | NCI-H23 2.58 µM | NCI-H460 4.78 µM | RPMI-8226 3.78 µM | HOP-92 2.14 µM | Malme-3M 4.14 µM | DU-145 12.9 µM | UO-31 4.97 µM | MDA-MB-435 4.31 µM | HT-29 3.39 µM | RXF 393 4.33 µM | SK-OV-3 17.5 µM | IGROV-1 5.87 µM | ACHN 13.6 µM | KM12 3.27 µM | U-251 3.08 µM | SN12C 13.7 µM | UACC-257 4.24 µM | TK-10 6.15 µM | MDA-N 3.42 µM | SF-539 4.63 µM | LOX IMVI 3.57 µM | NCI-H522 1.24 µM | CAKI-1 8.95 µM | SK-MEL-5 9.57 µM | MDA-MB-231 4.31 µM | SK-MEL-28 13 µM | SF-295 7.33 µM | EKVX 14.5 µM | BT-549 3.09 µM | M14 4.09 µM
